The source of these data is patent US20150119251A1, “AGRICULTURAL PLANT-PROTECTING AGENTS CONTAINING DIPEPTIDE DERIVATIVE AS ACTIVE INGREDIENT” (REPUBLIC OF KOREA (RURAL DEVELOPMENT ADMINISTRATION), priority 2012, published 2015).

Square brackets hold non-standard residues; d marks the D form. Peptide text beside a SMILES is read from it. * marks the point of attachment. Trt = c1ccc(C(c2ccccc2)(c2ccccc2)*)cc1; Boc = CC(C)(C)OC(=O)*; Bz = O=C(c1ccccc1)*; OBn = c1ccc(CO*)cc1; OAll = C=CCO*

For this assay, the system named is pepper phytophthora blight (Phytopthora capsici). In words: Suppression of pepper phytophthora blight on leaves. In kind it is in vivo. The following applies: for Lesion outbreak rate: pepper leaves; for Outbreak of the phytophthora blight on the leaves: drench-treated to the roots. Here is the method: The peppers were raised in the same method as Example 3, and then, the test compounds were dissolved in 20% methanol to make a stock solution, and a stock was diluted to the concentrations of 0.1, 1.0, and 10.0 ppm. The test solutions were sprayed on the leaves or drench-treated on the leaves. After 7 days, the pathogen of plant bacterial rot (Pectobacterium carotovorum SCC1) was cultured in a TSA medium for 27 hours, and then, wetted on an 8 mm diameter paper disc in the concentration of 10^8 cfu/mL. The paper disc was located in the center of the leaves that were cut roundly, and then, after about 7 days, the lesion area was measured. In the case of phytophthora, the potato agar medium cultured with the phytophthora (Phytophthora capsici) was cut in the internal diameter size of 5 mm with a cork borer, and then inoculated to the leaves. After 7 days, the lesion area was observed. In the case of a bacterial rot, when Compounds 6, 89, 93, and 95 were sprayed on the pepper leaves, the bacterial rot was not found in the concentration of 1 or 10 ppm as compared with the non-treated group. […] The Suppression of lesion formation on the leaves when these compounds were drench-treated to the roots can be explained as it was resulted from that systemic disease resistance was induced in the whole plant. These test results are illustrated in the photographs of FIGS. 5 to 9.

Setting [1] is: drench-treated, 1.0 or 10.0 ppm.

As to `COC(=O)[C@@H]1CCCN1C(=O)[C@@H](CSC(c1ccccc1)(c1ccccc1)c1ccccc1)NC(=O)OC(C)(C)C` [Compound 77] (Boc-[dC](Trt)-Pro-OMe), the Lesion outbreak rate runs as follows: (0.1 ppm) 46 area %; (1.0 ppm) 36 area %.
For `COC(=O)[C@@H]1CCCN1C(=O)[C@H](N)CS` [Compound 78] (H-[dC]-Pro-OMe), the Lesion outbreak rate is, setting by setting: (0.1 ppm) 58 area %; (1.0 ppm) 47 area %.
As to `COC(=O)CNC(=O)[C@H](CO)NC(=O)OC(C)(C)C` [Compound 81] (Boc-Ser-Gly-OMe), the Lesion outbreak rate was determined as 68 area % (0.1 ppm) and 58 area % (1.0 ppm).
For `CCOC(=O)[C@H](C)NC(=O)CNC(=O)OC(C)(C)C` [Compound 82] (Boc-Gly-Ala-OEt), the Lesion outbreak rate runs as follows: (0.1 ppm) 74 area %; (1.0 ppm) 60 area %.
For `CCOC(=O)[C@H](Cc1ccccc1)NC(=O)[C@H](CC(C)C)NC(=O)OC(C)(C)C` [Compound 83] (Boc-Leu-Phe-OEt), the Lesion outbreak rate is on record as 80 area % (0.1 ppm) and 57 area % (1.0 ppm).
In the case of `COC(=O)[C@@H]1CCCN1C(=O)[C@H](Cc1c[nH]c2ccccc12)NC(=O)OC(C)(C)C` [Compound 84] (Boc-Trp-Pro-OMe), the Lesion outbreak rate runs as follows: (0.1 ppm) 35 area %; (1.0 ppm) 33 area %.
The corresponding values for `COC(=O)[C@@H]1CCCN1C(=O)[C@H](C)NC(=O)OC(C)(C)C` [Compound 86] (Boc-Ala-Pro-OMe) are 58 area % and 83 area %.
For `COC(=O)[C@@H](NC(=O)CNC(=O)OC(C)(C)C)C(C)C` [Compound 87] (Boc-Gly-Val-OMe), in that order: 62 area % and 36 area %.
The corresponding values for `COC(=O)[C@@H](NC(=O)CN)C(C)C` [Compound 88] (H-Gly-Val-OMe) are 35 area % and 33 area %.
For the compound `C=CCOC(=O)C[C@H](NC(=O)OC(C)(C)C)C(=O)N[C@@H](Cc1ccccc1)C(=O)OC` [Compound 92] (Boc-Asp(OAll)-Phe-OMe), the Lesion outbreak rate by setting is: (0.1 ppm) 25 area %; (1.0 ppm) 38 area %.
Take `COC(=O)[C@H](Cc1ccccc1)NC(=O)[C@H](CC(=O)OCc1ccccc1)NC(=O)OC(C)(C)C` [Compound 94] (Boc-Asp(OBn)-Phe-OMe): the “Outbreak of the phytophthora blight on the leaves” value is given as “significantly decreased”. Further, the “Lesion formation, pepper phytophthora test” value (“Lesion formation” for short) under setting [1] is recorded as “no the lesion formations”. The same compound returned a Lesion outbreak rate (0.1 ppm) of 12 area %. For the setting “1.0 ppm”, this compound showed a Lesion outbreak rate of 6.8 area %.
Regarding `COC(=O)C[C@H](NC(C)=O)C(=O)N[C@@H](Cc1ccccc1)C(=O)OC` [Compound 96] (Ac-Asp(OMe)-Phe-OMe), the Lesion outbreak rate is 32 area % (0.1 ppm) and 23 area % (1.0 ppm).
The corresponding values for `COC(=O)C[C@H](NC(=O)c1ccccc1)C(=O)N[C@@H](Cc1ccccc1)C(=O)OC` [Compound 97] (Bz-Asp(OMe)-Phe-OMe) are 22 area % and 25 area %.
For `C=CCOC(=O)C[C@H](NC(C)=O)C(=O)N[C@@H](Cc1ccccc1)C(=O)OC` [Compound 98] (Ac-Asp(OAll)-Phe-OMe), in that order: 16 area % and 12 area %.
Turning to `C=CCOC(=O)C[C@H](NC(=O)c1ccccc1)C(=O)N[C@@H](Cc1ccccc1)C(=O)OC` [Compound 99] (Bz-Asp(OAll)-Phe-OMe), the Lesion outbreak rate by setting is: (0.1 ppm) 36 area %; (1.0 ppm) 18 area %.
Consider `COC(=O)[C@H](Cc1ccccc1)NC(=O)[C@H](CC(=O)OCc1ccccc1)NC(C)=O` [Compound 100] (Ac-Asp(OBn)-Phe-OMe), for which the Lesion outbreak rate is on record as 19 area % (0.1 ppm) and 21 area % (1.0 ppm).
As to `COC(=O)[C@H](Cc1ccccc1)NC(=O)[C@H](CC(=O)OCc1ccccc1)NC(=O)c1ccccc1` [Compound 101] (Bz-Asp(OBn)-Phe-OMe), the Lesion outbreak rate runs as follows: (0.1 ppm) 11 area %; (1.0 ppm) 27 area %.
For `COC(=O)[C@H](Cc1ccccc1)NC(=O)[C@H](CC(=O)O)NC(C)=O` [Compound 102] (Ac-Asp-Phe-OMe), the Lesion outbreak rate reads like this: (0.1 ppm) 20 area %; (1.0 ppm) 15 area %.
Consider `COC(=O)CNC(=O)[C@@H](NC(C)=O)C(C)C` [Compound 103] (Ac-Val-Gly-OMe), for which the Lesion outbreak rate is 15 area % (0.1 ppm) and 28 area % (1.0 ppm).
As for `COC(=O)CNC(=O)[C@H](CC(C)C)NC(C)=O` [Compound 104] (Ac-Leu-Gly-OMe), the Lesion outbreak rate amounted to 22 area % (0.1 ppm) and 18 area % (1.0 ppm).
Consider `COC(=O)CNC(=O)[C@@H]1CCCN1C(C)=O` [Compound 105] (Ac-Pro-Gly-OMe), for which the Lesion outbreak rate reads like this: (0.1 ppm) 18 area %; (1.0 ppm) 21 area %.
For the compound `COC(=O)[C@@H]1CCCN1C(=O)CNC(=O)OC(C)(C)C` [Compound 106] (Boc-Gly-Pro-OMe), the Lesion outbreak rate was determined as 25 area % (0.1 ppm) and 26 area % (1.0 ppm).
On to `COC(=O)[C@@H]1CCCN1C(=O)[C@@H](N)Cc1c[nH]c2ccccc12` [Compound 107] (H-Trp-Pro-OMe), for which the “Outbreak of the phytophthora blight on the leaves” value is given as “significantly decreased”. Further, the “Effect on suppressing the outbreak of pepper phytophthora blight or bacterial rot as compared with the non-treated control group” value (directly sprayed to the leaves, phytophthora blight or bacterial rot) is listed as “excellent”. In addition, the “Lesion formation” value under setting [1] is recorded as “no the lesion formations”. This compound yielded a Lesion outbreak rate (0.1 ppm) of 9.3 area %. This compound gave a Lesion outbreak rate (1.0 ppm) of 3.5 area %. Moreover, the “Lesion formation” value (sprayed on the leaves, 1 or 0.1 ppm) is reported as “no the lesion formations”.
On to `COC(=O)[C@H](C)NC(=O)[C@@H](N)C(C)C` [Compound 108] (H-Val-Ala-OMe), for which the Lesion outbreak rate runs as follows: (0.1 ppm) 14 area %; (1.0 ppm) 18 area %.
`CCC(C)C(N)C(=O)NC(C)C(=O)OC` (centres unmarked) [Compound 109]: the Lesion outbreak rate reads like this: (0.1 ppm) 25 area %; (1.0 ppm) 9.4 area %.
